Measurements: a melting point compilation (Tetko et al.; mined from patent text by program, amines drawn as free bases though some values may be those of a salt)

Row | SMILES | melting point [°C]
1 | CS(=O)(=O)Nc1ccc(OCC2CCN(c3cc(N)ccn3)CC2)cc1 | 213 to 214
2 | CC(O)Cn1nc2c3c(ccc([N+](=O)[O-])c31)CCC2 (configuration not stated) | 144 to 146
3 | CN(C)C=C1CCN(C(=O)c2ccc([N+](=O)[O-])cc2)c2ccccc2C1=O | 180 to 183
4 | CCOc1ccc([N+](=O)[O-])c(Nc2ccc(OC)cc2)c1 | 109
5 | COc1cc(NC(C)=O)ccc1OCCN1CCN(c2ccccc2F)CC1 | 118 to 119
6 | CCOC(=O)c1cn(-c2cc(C)on2)cn1 | 142 to 143
7 | CC(C)n1c(CC[C@@H](O)C[C@@H](O)CC(=O)O)c(-c2ccc(F)cc2)c(-c2ccc(F)cc2)c1C(=O)NCc1ccc(C(=O)O)cc1 | 140 to 142
8 | COc1ccc(S(=O)(=O)N(CC(N)=O)c2ccc(F)cc2C(O)c2ccccc2Cl)cc1OC (configuration not stated) | 232
9 | COC(=S)NS(=O)(=O)c1ccc(Cl)cc1 | 129 to 130
10 | CCOC(=O)C1CCCCCCC(=O)C(=O)N1 (configuration not stated) | 129 to 130
11 | O=C(O)c1ccc(/C=C/C(=O)c2ccc(-c3cccs3)cc2)cc1 | 260 to 265
12 | O=C(O)C1CCCN1S(=O)(=O)c1ccc(F)cc1 (configuration not stated) | 145 to 148
13 | Cc1nc(N2CCC(c3ccc(F)cc3)CC2)c([N+](=O)[O-])c(=O)n1CCCCO | 154 to 156
14 | CCCc1cc(Cl)c2oc(-c3ccccc3)c(C)c2c1O | 102 to 104
15 | COc1ccc(C(=O)CI)cc1 | 63 to 65
16 | CCc1c(N)cccc1NC(=O)c1ccc(Br)cc1 | 169 to 170
17 | CCOCc1nc2c(N)nc3cc(OCCCCCCNC(C)=O)ccc3c2n1CC(C)(C)NC(C)=O | 190 to 192
18 | CC(C)(C)c1noc(NS(=O)(=O)c2ccccc2)c1Br | 108 to 109
19 | CC(C)(CNC1(c2ccccc2Cl)C(=O)Nc2ccc(Cl)cc21)NC(=O)OC(C)(C)C (configuration not stated) | 164
20 | CNC(=O)OCc1c(COC(=O)NC)c(-c2ccc(OC)cc2)n2c1Cc1cc(OC)ccc1-2 | 110 to 112
21 | CC(C)(C)OC(=O)Nc1ncc(C=O)s1 | 173 to 175
22 | O=C(O)CCCCC(O)CCCl (single isomer, unassigned; (-)) | 29 to 30
23 | Cc1cc(-c2cn[nH]c2N)cc(C)n1 | 222
24 | NC(=O)c1c(C(=O)O)cnn1-c1ccc(Cl)cc1 | 249 to 250
25 | C=CN(C(=O)CCl)c1c(CC)cccc1CC | 45 to 47
26 | COc1ccc(-n2c(CF)nc3ccc(N)cc3c2=O)c(C)c1 | 200 to 202
27 | C[C@H](O)CNc1cc(OCc2ccccc2)ccc1C=O | 68 to 69
28 | CN(SC1(C)CCCC1=O)C(=O)ON=C1SC(C)(C)C(=O)N1C (configuration not stated) | 119 to 121
29 | CCCCc1noc(-c2ccc(C(=O)NCCC(C)(C)C)cc2)n1 | 95 to 97
30 | O=C(c1ccc(Br)s1)N(Cc1cccc(O)c1)C1CC1 | 128

The remaining lines, values ahead:

Row | melting point [°C] | SMILES
31 | 119 to 123 | CCCN(C)CCOc1ccc(-n2ccc(OCc3ccc(Cl)cn3)cc2=O)cc1
32 | 172 to 175 | Nc1ccc(OC23CC4CC(CC(C4)C2)C3)cc1
33 | 208 to 210 | CC1(C)Cc2cc(O)c3c(c2C(c2ccccc2)=N1)CC(C)(C)O3
34 | 166 | Cn1cc(N2C=CN=CC2)ccc1=O
35 | 185 | CC(=O)Nc1c(N)cc(Br)cc1OCc1ccccc1
36 | 179 to 180 | Cc1c(OCC(F)(F)F)ccnc1CSc1nc2cc(OC(F)F)ccc2n1N
37 | 141 to 142 | C#CCSc1ccccc1C=CCN(O)C(N)=O
38 | 73 to 79 | COC(=O)COc1ccsc1-c1nsc2ccc(-n3c(=O)cc(C(F)(F)F)n(C)c3=O)cc12
39 | 130 to 132 | CCN(Cc1csc(N)c1C(=O)c1ccc(Cl)cc1)c1ccccc1
40 | 183 | CCOC(=O)C1=C(C)NC(N)=C(C(=O)OCC)C1c1ccco1 (configuration not stated)
41 | 203 to 204 | OC[C@H]1O[C@@H](n2cnc3c(N[C@H]4CC[C@H](O)CC4)nc(Cl)nc32)[C@H](O)[C@@H]1O
42 | 68 to 69.5 | CCOC(=O)c1c(C(F)(F)F)nc(C(F)F)c(C(=O)OC)c1NC1CC1
43 | 75 to 78 | CC(=O)OCC1OC(c2cnc(Cl)nc2Cl)C(OC(C)=O)C1OC(C)=O (configuration not stated)
44 | 88 to 92 | CN(C)c1nc(Cl)nc(-n2ccnc2)n1
45 | 170 to 172 | CCCc1c(O)c(O)c(C(=O)O)c2cc(C)c(C)cc12
46 | 265 to 267 | O=C1C(=O)c2ccc(-c3ccncc3)cc2C2=C1SCC1(CCN(C(=O)c3cccc(Cl)c3)CC1)O2
47 | 112 to 116 | CC(C)(C)OC(=O)Nn1ccc2ccccc21
48 | 127 | CCCCc1oc2ccccc2c1-c1ncc(-c2ccc3cc(OCC#N)ccc3c2)o1
49 | 111 to 113 | CCCCCCCOc1ccc(CNc2ccc(C(=O)OCC)cc2)cc1
50 | 102 | CC(C)(C)OC(=O)NCCCCNC(=O)Cc1ccc2ccccc2c1
51 | 132 to 133 | CCn1ncc2c(N)c3c(nc21)CCc1ccccc1C3=O

Row | melting point [°C] | SMILES
52 | 85 to 86 | CC1(C)CCC(=Cc2ccc(Cl)cc2)C(=O)C1
53 | 143 to 149 | CN(CC(=O)Nc1cccc(-c2cc(-c3ccccc3O)nc(NC(=O)c3cccs3)c2C#N)c1)C(=O)OC(C)(C)C
54 | 130 to 133 | COc1cc(OC)cc(C(=O)NCC23CC4CC(CC(C4)C2)C3)c1
55 | 80.5 to 89.9 | CNN1c2c(cc(Oc3ccc(F)cc3F)c(=O)n2NC)C=NC1NC1CCOCC1 (configuration not stated)
56 | 96 to 99 | CC(=O)NCCNC(=O)c1ccccn1
57 | 105 to 108 | CCOC(=O)c1c(N(Cc2c(F)cccc2F)C(=O)OCC)sc(-c2ccc([N+](=O)[O-])cc2)c1CBr
58 | 149 to 150 | COc1cc(-c2nc(=O)c3ccccc3s2)ccn1
59 | 301 | Cc1cc(-c2ccc(Cl)cc2)cn2c(-c3nc(-c4cccc(S(N)(=O)=O)c4)no3)cnc12
60 | > 240 | Cn1c(CN2C(=O)C3(COc4cc5c(cc43)OCCO5)c3ccccc32)nc2ccccc21 (configuration not stated)
61 | 202 to 205 | O=C(NC(SC(=O)c1ccccc1)C(=O)N1CCCC1C(=O)O)c1ccccc1 (configuration not stated)
62 | 140 | O=C1CC(NC(=O)C2CCCN3C(=O)CCC(NC(=O)c4ccccc4)C(=O)N23)C(OC2Cc3ccccc3C2)O1 (configuration not stated)
63 | 223 to 225 | CCn1c(=O)n(O)c(=O)c2c(F)c(F)c(N3CCCC3)c(F)c21
64 | 114 to 115 | CCCCCC(CC(=O)Nc1c(C(C)C)cccc1C(C)C)c1cccc2c1OCO2 (configuration not stated)
65 | 73 to 75 | C[Si](C)(C)CCCCCC1=C(O)C(=O)c2ccccc2C1=O
66 | 263 to 270 | Nc1c(C(=O)c2cccc(C(=O)O)c2)[nH]c2cc(Cl)ccc12
67 | 207 to 208 | CC1CCC2(OC1)OC1CC3C4CCC5CC(OCCO)CCC5(C)C4CCC3(C)C1C2C (configuration not stated)
68 | 98 | CCC(Oc1ccc(-n2c(C)nc3cc(C(F)(F)F)ccc32)cc1)C(=O)O (configuration not stated)
69 | 62 | CCOC(=O)CC1CCC(CCNS(=O)(=O)c2ccc(Br)cc2)CC1 (configuration not stated)
70 | 140 to 142 | CCOC(=O)C1=C(NC(=O)Nc2cc(C(=O)OC(C)C)c(Cl)cc2Cl)CCC1
71 | 126 to 128 | O=C(Cl)c1ncn(Cc2ccc(Cl)c(Cl)c2)c1C(=O)Cl
72 | 88 to 90 | CC(C)(C)COC(=O)COc1ccc(C(=O)CN2CCN(c3ccncc3)CC2)cc1
